Experimental findings from patent US8455491B2, “6-cycloamino-3-(pyridazin-4-yl)imidazo[1,2-b]pyridazine and derivatives and pharmaceutical compositions comprising the same” (Sanofi, priority 2007, dated 2013) are described below.

The term melting point denotes the temperature, or range, at which the solid turns liquid. The term IC50 denotes the concentration at which inhibition is half-maximal.

Molecules are shown by their SMILES.

T1 sequence (P49674 whole entry): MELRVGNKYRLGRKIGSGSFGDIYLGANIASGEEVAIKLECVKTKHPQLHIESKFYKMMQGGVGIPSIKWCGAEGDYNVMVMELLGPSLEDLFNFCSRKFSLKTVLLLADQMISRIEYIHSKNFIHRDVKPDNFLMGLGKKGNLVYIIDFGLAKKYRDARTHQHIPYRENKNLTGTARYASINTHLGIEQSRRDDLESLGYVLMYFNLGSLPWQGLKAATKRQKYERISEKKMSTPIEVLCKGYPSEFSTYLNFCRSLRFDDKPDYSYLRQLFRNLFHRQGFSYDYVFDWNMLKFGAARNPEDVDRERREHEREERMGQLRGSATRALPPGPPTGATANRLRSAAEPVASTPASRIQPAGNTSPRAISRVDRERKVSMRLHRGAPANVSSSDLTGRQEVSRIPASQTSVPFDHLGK

Tested on in one data set: not given
Assay: not given
Conditions: not given
`FCC1CN(c2ccc3nc(-c4ccc(F)cc4)c(-c4ccnnc4)n3n2)CCN1` (racemic) [compound 40, (+/−)-6-(3-fluoromethylpiperazin-1-yl)-2-(4-fluorophenyl)-3-pyridazin-4-ylimidazo[1,2-b]pyridazine] registered a melting point of 184 to 189 °C.
In the case of `CC1(C)CN(c2ccc3nc(-c4ccc(F)cc4)c(-c4ccnnc4)n3n2)CCN1` [Compound No. 3, 6-(3,3-dimethylpiperazin-1-yl)-2-(4-fluorophenyl)-3-pyridazin-4-yl-imidazo[1,2-b]pyridazine], the melting point was 226 to 228 °C.
For `C[C@@H]1CN(c2ccc3nc(-c4ccc(F)cc4)c(-c4ccnnc4)n3n2)C[C@H](C)N1` [compound 4, 6-(cis-3,5-dimethylpiperazin-1-yl)-2-(4-fluorophenyl)-3-pyridazin-4-yl-imidazo[1,2-b]pyridazine], the melting point fell in the range of 197 to 199 °C.
Regarding `FCCN1CCN(c2ccc3nc(-c4ccccc4)c(-c4ccnnc4)n3n2)CC1` [compound 7, 6-[4-(2-fluoroethyl)piperazin-1-yl]-2-phenyl-3-pyridazin-4-yl-imidazo[1,2-b]pyridazine], the melting point was 156 to 158 °C.
Take `CC(C)N1CCN(c2ccc3nc(-c4cccc(F)c4)c(-c4ccnnc4)n3n2)CC1` [compound 10, 2-(3-fluorophenyl)-6-(4-isopropylpiperazin-1-yl)-3-pyridazin-4-yl-imidazo[1,2-b]pyridazine]: the melting point lay in the range of 197 to 199 °C.
`Cc1cc(C)cc(-c2nc3ccc(N4CCN(C(C)C)CC4)nn3c2-c2ccnnc2)c1` [compound 13, 2-(3,5-dimethylphenyl)-6-(4-isopropylpiperazin-1-yl)-3-pyridazin-4-yl-imidazo[1,2-b]pyridazine] returned a melting point of 183 to 184 °C.
The same measure, in the same setting: as for `CC(C)(O)CN1CCN(c2ccc3nc(-c4ccc(F)cc4)c(-c4ccnnc4)n3n2)CC1` [compound 20, 1-{4-[2-(4-fluorophenyl)-3-pyridazin-4-yl-imidazo[1,2-b]pyridazin-6-yl]piperazin-1-yl}-2-methylpropan-2-ol], the figure is 200 to 202 °C.
On to `CC(C)(O)CCN1CCN(c2ccc3nc(-c4ccc(F)cc4)c(-c4ccnnc4)n3n2)CC1` [compound 21, 4-{4-[2-(4-fluorophenyl)-3-pyridazin-4-yl-imidazo[1,2-b]pyridazin-6-yl]piperazin-1-yl}-2-methylbutan-2-ol], for which the melting point was in the range of 148 to 150 °C.
The molecule `Fc1ccc(-c2nc3ccc(N4C[C@@H]5C[C@H]4CN5)nn3c2-c2ccnnc2)cc1` [compound 23, 6-((1S,4S)-2,5-diazabicyclo[2.2.1]hept-2-yl)-2-(4-fluorophenyl)-3-pyridazin-4-yl-imidazo[1,2-b]pyridazine] yielded a melting point of 205 to 207 °C.
The molecule `OCCN1C[C@@H]2C[C@H]1CN2c1ccc2nc(-c3ccc(F)cc3)c(-c3ccnnc3)n2n1` [compound 24, 2-{5-[2-(4-fluorophenyl)-3-pyridazin-4-yl-imidazo[1,2-b]pyridazin-6-yl]-(1S,4S)-2,5-diazabicyclo[2.2.1]hept-2-yl}-ethanol] showed a melting point of 175 to 177 °C.
In the case of `CC(C)N1C[C@@H]2C[C@H]1CN2c1ccc2nc(-c3ccc(F)cc3)c(-c3ccnnc3)n2n1` [compound 25, 2-(4-fluorophenyl)-6-(5-isopropyl-(1S,4S)-2,5-diazabicyclo[2.2.1]hept-2-yl)-3-pyridazin-4-yl-imidazo[1,2-b]pyridazine], the melting point fell in the range of 201 to 203 °C.
`Fc1ccc(-c2nc3ccc(N4CCC5(CCCNC5)CC4)nn3c2-c2ccnnc2)cc1` [compound 31, 9-[2-(4-fluorophenyl)-3-pyridazin-4-yl-imidazo[1,2-b]pyridazin-6-yl]-2,9-diaza-spiro[5.5]undecane]: the melting point lay within 203 to 205 °C.
With `Fc1ccc(-c2nc3ccc(N4CCC5(CC4)CNCCO5)nn3c2-c2ccnnc2)cc1` [compound 32, 9-[2-(4-fluorophenyl)-3-pyridazin-4-yl-imidazo[1,2-b]pyridazin-6-yl]-1-oxa-4,9-diaza-spiro[5.5]undecane], the melting point was 212 to 214 °C.
The molecule `Fc1ccc(-c2nc3ccc(N4CCC(N5CCCC5)C4)nn3c2-c2ccnnc2)cc1` (stereo not drawn) [compound 33, 6-[1,3]bipyrrolidinyl-1′-yl-2-(4-fluorophenyl)-3-pyridazin-4-yl-imidazo[1,2-b]pyridazine] had a melting point of 182 to 184 °C.
`Fc1ccc(-c2nc3ccc(N4CCC(N5CCCC5)CC4)nn3c2-c2ccnnc2)cc1` [compound 34, 2-(4-fluorophenyl)-3-pyridazin-4-yl-6-(4-pyrrolidin-1-yl-piperidin-1-yl)-imidazo[1,2-b]pyridazine] gave a melting point of 196 to 198 °C.
As to `CN1CC2CN(c3ccc4nc(-c5ccccc5)c(-c5ccnnc5)n4n3)CC2C1` (stereo not drawn) [compound 41, 6-(5-methylhexahydropyrrolo[3,4-c]pyrrol-2(1H)-yl)-2-phenyl-3-pyridazin-4-ylimidazo[1,2-b]pyridazine], the melting point is 154 to 157 °C.
`CN1CC2CN(c3ccc4nc(-c5cccc(F)c5)c(-c5ccnnc5)n4n3)CC2C1` (stereo not drawn) [compound 42, 2-(3-fluorophenyl)-6-(5-methylhexahydropyrrolo[3,4-c]pyrrol-2(1H)-yl)-3-pyridazin-4-ylimidazo[1,2-b]pyridazine] gave a melting point of 168 to 170 °C.
`Cc1cc(N2CC3CN(C)CC3C2)nn2c(-c3ccnnc3)c(-c3ccc(F)cc3)nc12` (stereo not drawn) [compound 44, 2-(4-fluorophenyl)-8-methyl-6-(5-methylhexahydropyrrolo[3,4-c]pyrrol-2(1H)-yl)-3-pyridazin-4-ylimidazo[1,2-b]pyridazine] had a melting point of 255 to 257 °C.
Consider `CN1CC2CN(c3ccc4nc(-c5ccc(F)c(F)c5)c(-c5ccnnc5)n4n3)CC2C1` (stereo not drawn) [compound 45, 2-(3,4-difluorophenyl)-6-(5-methylhexahydropyrrolo[3,4-c]pyrrol-2(1H)-yl)-3-pyridazin-4-ylimidazo[1,2-b]pyridazine], for which the melting point fell in the range of 186 to 188 °C.

A further data set has as its target T1, casein kinase 1 epsilon (CK1 epsilon) (Homo sapiens, UniProt P49674).
T1 construct: Invitrogen Corporation (named as alternative)
The data set is described as follows: Filter-plate assay of ATP-33P, inhibition of casein phosphorylation by CK1 epsilon. Type of data set: biochemical. The settings on record: casein substrate, ATP 10 μM, 2 hours at ambient temperature. On the procedure:
The capacity of the compounds of the invention to inhibit the phosphorylation of casein by casein kinase 1 epsilon and delta may be evaluated according to the procedure described in US 2005/0131012.
Filter-Plate Assay of ATP-^33P for the Screening of CK1 Epsilon Inhibitors:
The effect of the compounds on inhibition of the phosphorylation of casein by the enzyme casein kinase 1 epsilon (CK1 epsilon) is measured, using a casein assay with filtration of ATP-^33P in vitro.
Casein kinase 1 epsilon (0.58 mg/ml) is obtained via fermentation and purification processes performed according to methods that are well known to those skilled in the art, or may also be obtained from Invitrogen Corporation™ (human CK1 epsilon).
The compounds are tested at five different concentrations so as to generate IC50 values, i.e. the concentration at which a compound is capable of inhibiting the enzymatic activity by 50%, or alternatively the percentage of inhibition at a concentration of 10 micromolar.
“U”-bottomed Falcon plates are prepared by placing 5 μL of solutions of the compounds according to the invention at concentrations of 10, 1, 0.1, 0.01 or 0.001 μM in various wells. The solutions of the compounds according to the invention at these various concentrations are prepared by diluting in a test buffer (50 mM Tris, pH 7.5, […], 2 mM DTT and 1 mM EGTA) a stock solution in DMSO at a concentration of 10 mM. Next, 5 μL of dephosphorylated casein are added to a final concentration of 0.2 μg/μL, 20 μl of CK1 epsilon to a final concentration of 3 ng/μl, and 20 μl of ATP-^33P to a final concentration of 0.02 μCi/μl mixed with cold ATP (10 μM final—approximately 2×10^6 CPM per well). The final total test volume per well is equal to 50 μl.
The “U”-bottomed Falcon® test plate mentioned above is vortexed, and then incubated at ambient temperature for 2 hours. After 2 hours, the reaction is stopped by adding an ice-cold solution of 65 μl of ATP (2 mM) prepared in test buffer.
100 μl of the reaction mixture are then transferred from the “U”-bottomed Falcon® plate into Millipore® MAPH filter plates, preimpregnated with 25 μl of ice-cold 100% TCA. […]
The plates are left to dry overnight at ambient temperature. […] The radiation emitted by each well is then measured for 2 minutes in a Packard® Topcount NXT scintillation counter, in which the values of CPM/well are measured.
The percentage inhibition of the capacity of the enzyme to phosphorylate the substrate (casein) is determined for each concentration of compound tested. These inhibition data expressed as percentages are used to calculate the IC50 value for each compound compared with the controls.
The kinetic studies determined the KM value for ATP as being 21 μM in this test system.
`CC(C)(O)CCN1CCN(c2ccc3nc(-c4ccc(F)cc4)c(-c4ccnnc4)n3n2)CC1` [compound 21, 4-{4-[2-(4-fluorophenyl)-3-pyridazin-4-yl-imidazo[1,2-b]pyridazin-6-yl]piperazin-1-yl}-2-methylbutan-2-ol] gave an IC50 of 134 to 166 nM.
Same read-out and setting: as for `CC(C)N1CC2CN(c3ccc4nc(-c5ccc(F)cc5)c(-c5ccnnc5)n4n3)CC2C1` (stereo not drawn) [compound 28, 2-(4-fluorophenyl)-6-(5-isopropylhexahydropyrrolo[3,4-c]pyrrol-2-(1H)-yl)-3-pyridazin-4-yl-imidazo[1,2-b]pyridazine], the figure is 54 to 69 nM.
